# Results as given in ChEMBL document CHEMBL6178002, “Identification of a RANKL/TNF-α Dual-Inhibitor as a Potential Disease-Modifying Agent for the Treatment of Knee Osteoarthritis” (J Med Chem, 2025).
# Tests used:
# [1] = Inhibition of RANKL/M-CSF-induced osteoclastogenesis in male C57/BL6 mouse bone marrow cells at 1 uM incubated for 5 to 7 days by TRAP staining based analysis relative to control; type: functional; settings: C57/BL6, Bone marrow cell, time 5-7 day
# [2] = Inhibition of RANKL/M-CSF-induced osteoclastogenesis in male C57/BL6 mouse bone marrow cells at 0.1 uM incubated for 5 to 7 days by TRAP staining based analysis relative to control; type: functional; settings: C57/BL6, Bone marrow cell, time 5-7 day
# [3] = Cytotoxicity against bone marrow macrophage cells (unknown origin) assessed as cell viability at 10 uM incubated for 24 hrs by CCK8 assay relative to control; type: toxicity, cell-based; settings: read-out: Activity
# [4] = Anti-osteoclastogenic activity in bone marrow cells (unknown origin) assessed as inhibition of RANKL/M-CSF-induced osteoclast differentiation measured after 5 days by TRAP staining based analysis; type: functional; settings: Bone marrow cell, 120 h
SMILES,inhibition at 1 µM [1] [%],inhibition at 0.1 µM [2] [%],"viability at 24 h, 10 µM [3] [%]",IC50 [4] [nM]
Cc1cccc(C)c1NC(=O)[C@H]1Cc2c([nH]c3ccccc23)C2(CN(c3ccccc3)C2)N1,78.3,42.9,119,–
Cc1cccc(C)c1NC(=O)[C@@H]1Cc2c([nH]c3ccccc23)C2(CN(c3ccc(C(F)(F)F)cc3)C2)N1,43.7,15.4,117,–
CCc1ccc(N2CC3(C2)N[C@H](C(=O)Nc2c(C)cccc2C)Cc2c3[nH]c3ccccc23)cc1,35.9,25.1,101,–
Cc1cccc(C)c1NC(=O)[C@@H]1Cc2c3ccccc3[nH]c2[C@]2(C[C@H](c3ccccc3)C2)N1,32.3,29.2,95.1,–
COc1cccc(OC)c1NC(=O)[C@@H]1Cc2c3ccccc3[nH]c2[C@]2(C[C@H](c3ccccc3)C2)N1,35.9,11.5,95.7,–
CC(C)c1ccccc1NC(=O)[C@@H]1Cc2c3ccccc3[nH]c2[C@]2(C[C@@H](c3ccccc3)C2)N1,62.5,26.5,116,–
Cc1ccccc1NC(=O)[C@@H]1Cc2c3ccccc3[nH]c2[C@]2(C[C@H](c3ccccc3)C2)N1,66.5,16.5,112,–
CN(C)c1ccccc1NC(=O)[C@@H]1Cc2c3ccccc3[nH]c2[C@]2(C[C@H](c3ccccc3)C2)N1,58.4,10.2,66.3,–
CC(C)c1ccccc1NC(=O)[C@@H]1Cc2c3ccccc3[nH]c2[C@]2(C[C@H](c3ccccc3)C2)N1,37.5,12.7,103,–
Cc1cccc(C)c1NC(=O)[C@@H]1Cc2c([nH]c3ccccc23)C2(CCN(c3ccccc3)CC2)N1,30.2,–,120,–
Cc1cccc(C)c1NC(=O)[C@@H]1Cc2c3ccccc3[nH]c2[C@]2(C[C@@H](c3ccccc3)C2)N1,55.1,36.2,105,–
Cc1cccc(C)c1NC(=O)[C@@H]1Cc2c([nH]c3ccccc23)[C@](C)(CCc2ccccc2)N1,48.3,37.3,117,–
Cc1cc2occ(CN(C)CCN(C)Cc3cn(-c4cccc(C(F)(F)F)c4)c4ccccc34)c(=O)c2cc1C,56.1,18.4,3.8,1000
CC(C)c1cccc(C(C)C)c1NC(=O)[C@@H]1Cc2c3ccccc3[nH]c2[C@]2(C[C@H](c3ccccc3)C2)N1,62,20.7,141,–
O=C(Nc1ccccn1)[C@@H]1Cc2c3ccccc3[nH]c2[C@]2(C[C@@H](c3ccccc3)C2)N1,41.2,16.1,127,–
CN(C)c1ccccc1NC(=O)[C@@H]1Cc2c3ccccc3[nH]c2[C@]2(C[C@@H](c3ccccc3)C2)N1,89.9,32.2,109,–

SMILES,inhibition at 1 µM [1] [%],inhibition at 0.1 µM [2] [%],"viability at 24 h, 10 µM [3] [%]",IC50 [4] [nM]
COc1ccc(N2CC3(C2)N[C@H](C(=O)Nc2c(C)cccc2C)Cc2c3[nH]c3ccccc23)cc1,48.6,34.6,102,–
Cc1cccnc1NC(=O)[C@@H]1Cc2c3ccccc3[nH]c2[C@]2(C[C@H](c3ccccc3)C2)N1,49.8,16.7,159,–
O=C(Nc1ccccc1F)[C@@H]1Cc2c3ccccc3[nH]c2[C@]2(C[C@@H](c3ccccc3)C2)N1,70.1,34.4,101,–
Cc1cccnc1NC(=O)[C@@H]1Cc2c3ccccc3[nH]c2[C@]2(C[C@@H](c3ccccc3)C2)N1,58.3,35.9,160,–
Cc1cccc(C)c1NC(=O)[C@@H]1Cc2c([nH]c3ccccc23)C2(CN(c3ccc(F)cc3)C2)N1,57.4,23.1,119,–
CC(C)c1cccc(C(C)C)c1NC(=O)[C@@H]1Cc2c3ccccc3[nH]c2[C@]2(C[C@@H](c3ccccc3)C2)N1,66.9,23.6,115,–
COc1cccc(OC)c1NC(=O)[C@@H]1Cc2c3ccccc3[nH]c2[C@]2(C[C@@H](c3ccccc3)C2)N1,32.3,16.5,70.2,–
Cc1cccc(C)c1NC(=O)[C@H]1Cc2c3ccccc3[nH]c2[C@]2(C[C@H](c3ccccc3)C2)N1,45.7,12.3,105,–
Cc1ccccc1NC(=O)[C@@H]1Cc2c3ccccc3[nH]c2[C@]2(C[C@@H](c3ccccc3)C2)N1,54.4,23,102,–
O=C(Nc1ccccn1)[C@@H]1Cc2c3ccccc3[nH]c2[C@]2(C[C@H](c3ccccc3)C2)N1,44.2,13.1,149,–
Cc1cccc(C)c1NC(=O)[C@@H]1Cc2c([nH]c3ccccc23)[C@@](C)(CCc2ccccc2)N1,52.1,23.4,106,–
Cc1cccc(C)c1NC(=O)[C@@H]1Cc2c([nH]c3ccccc23)C2(CN(c3ccc(C#N)cc3)C2)N1,48.3,37.3,105,–
Cc1cccc(C)c1NC(=O)[C@@H]1Cc2c([nH]c3ccccc23)C2(CN(c3cccnc3)C2)N1,52.5,11.5,107,–
Cc1cccc(C)c1NC(=O)[C@H]1Cc2c3ccccc3[nH]c2[C@]2(C[C@@H](c3ccccc3)C2)N1,23.8,–,116,–
Cc1cccc(C)c1NC(=O)[C@@H]1Cc2c([nH]c3ccccc23)C2(CN(c3ccc(S(C)(=O)=O)cc3)C2)N1,52.1,23.4,106,–
O=C(Nc1ccccc1F)[C@@H]1Cc2c3ccccc3[nH]c2[C@]2(C[C@H](c3ccccc3)C2)N1,40.7,17.6,63.6,–
